Source: US20140154264A1, “COMPOSITIONS AND METHODS FOR TREATING CANCER AND DISEASES AND CONDITIONS RESPONSIVE TO CELL GROWTH INHIBITION” (THE REGENTS OF THE UNIVERSITY OF CALIFORNIA, priority 2011, published 2014)
Where two headings read alike, the source gives them in different places. Values belong to the molecule of their own block, whether it stands above or below them.

Assays:
FG and FG-β3 cells = test: tumor sphere formation assay; assay type: cell-based, human; settings: for effect of αvβ3 expression on drug resistance: in vitro, FG cells lacking vs expressing αvβ3
Protocol: (n=3 independent experiments); as discussed in detail in Example 1, below.
Therefore, we examined whether αvβ3 expression also promotes resistance to other growth factor inhibitors and/or cytotoxic agents.
Immunoblot analysis of FG, FG-β3 and FG-β3 stably expressing non-silencing or RalB-specific ShRNA, grown in suspension and treated with erlotinib (0.5 μM). pTBK1 refers to phospho-S172 TBK1, p-p65 NF-κB refers to phospho-p65 NF-κB S276, pFAK refers to phospho-FAK Tyr 861. […] Error bars represent s.d. (n=3 independent experiments). *P<0.05, **P<0.001, NS=not significant. Immunoblot analysis showing NF-κB WT and S276D NF-κB FLAG transfection efficiency. (c) Tumor spheres formation assay of FG-β3 treating with non-silencing (shCTRL) or NF-κB-specific shRNA and exposed to erlotinib (0.5 μM). Error bars represent s.d. (n=3 independent experiments). *P<0.05, NS=not significant. (d) Dose response in FG-β3 cells treated with erlotinib (10 nM to 5 μM), lenalidomide (10 nM to 5 μM) or a combination of erlotinib (10 nM to 5 μM) and lenalidomide (1 μM). Error bars represent s.d. (n=3 independent experiments). *P<0.05, NS=not significant.
Tumor spheres formation assays were performed essentially as described previously^17. Briefly, cells were seeded at 1000 to 2000 cells per well and grown for 12 days to 3 weeks. Cells were treated with vehicle (DMSO), erlotinib (10 nM to 5 μM), lapatinib (10 nM to 5 μM), gemcitabine (0.001 nM to 5 μM), OSI-906 (10 nM to 5 μM), lenalidomide (10 nM to 5 μM), or cisplatin (10 nM to 5 μM), diluted in DMSO. The media was replaced with fresh inhibitor every day for erlotinib, lapatinib, lenalidomide and 3 times a week for cisplatin and gemcitabine. Colonies were stained with crystal violet and scored with an Olympus SZH10 microscope. Survival curves were generated at least with five concentration points.

avb3 = avb3 (Homo sapiens, UniProt P05106+P06756); test: cell-free integrin binding assay
avb3, sequence (P06756 31-889 limits assumed): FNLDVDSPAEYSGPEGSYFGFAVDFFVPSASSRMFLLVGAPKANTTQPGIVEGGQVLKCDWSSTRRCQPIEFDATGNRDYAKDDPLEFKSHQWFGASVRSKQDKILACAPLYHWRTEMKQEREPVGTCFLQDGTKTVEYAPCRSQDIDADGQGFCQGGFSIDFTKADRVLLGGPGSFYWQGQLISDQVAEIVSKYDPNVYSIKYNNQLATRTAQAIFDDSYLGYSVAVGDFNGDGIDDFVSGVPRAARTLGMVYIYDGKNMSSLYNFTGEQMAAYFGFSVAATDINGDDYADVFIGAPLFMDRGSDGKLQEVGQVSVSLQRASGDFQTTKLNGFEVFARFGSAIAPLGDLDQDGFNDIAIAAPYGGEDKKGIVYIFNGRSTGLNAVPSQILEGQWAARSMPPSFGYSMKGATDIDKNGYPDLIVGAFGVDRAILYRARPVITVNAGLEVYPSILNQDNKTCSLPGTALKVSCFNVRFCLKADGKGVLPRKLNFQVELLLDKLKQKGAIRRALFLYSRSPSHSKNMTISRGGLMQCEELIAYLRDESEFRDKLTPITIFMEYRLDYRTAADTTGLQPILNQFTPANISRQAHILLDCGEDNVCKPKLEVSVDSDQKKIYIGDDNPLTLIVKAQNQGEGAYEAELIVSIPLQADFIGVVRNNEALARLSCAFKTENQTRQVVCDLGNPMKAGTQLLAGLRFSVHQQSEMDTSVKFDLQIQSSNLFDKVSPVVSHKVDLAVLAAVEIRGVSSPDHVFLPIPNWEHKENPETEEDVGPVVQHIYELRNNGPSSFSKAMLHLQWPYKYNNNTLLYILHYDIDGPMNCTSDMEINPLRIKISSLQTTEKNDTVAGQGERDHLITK
avb3, sequence (P06756 891-1048 limits assumed): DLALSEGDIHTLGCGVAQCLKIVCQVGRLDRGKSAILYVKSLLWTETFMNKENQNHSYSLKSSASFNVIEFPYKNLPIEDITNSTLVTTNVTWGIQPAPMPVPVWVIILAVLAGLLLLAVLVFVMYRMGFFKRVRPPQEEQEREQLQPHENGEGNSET
avb3, sequence (P05106 27-788): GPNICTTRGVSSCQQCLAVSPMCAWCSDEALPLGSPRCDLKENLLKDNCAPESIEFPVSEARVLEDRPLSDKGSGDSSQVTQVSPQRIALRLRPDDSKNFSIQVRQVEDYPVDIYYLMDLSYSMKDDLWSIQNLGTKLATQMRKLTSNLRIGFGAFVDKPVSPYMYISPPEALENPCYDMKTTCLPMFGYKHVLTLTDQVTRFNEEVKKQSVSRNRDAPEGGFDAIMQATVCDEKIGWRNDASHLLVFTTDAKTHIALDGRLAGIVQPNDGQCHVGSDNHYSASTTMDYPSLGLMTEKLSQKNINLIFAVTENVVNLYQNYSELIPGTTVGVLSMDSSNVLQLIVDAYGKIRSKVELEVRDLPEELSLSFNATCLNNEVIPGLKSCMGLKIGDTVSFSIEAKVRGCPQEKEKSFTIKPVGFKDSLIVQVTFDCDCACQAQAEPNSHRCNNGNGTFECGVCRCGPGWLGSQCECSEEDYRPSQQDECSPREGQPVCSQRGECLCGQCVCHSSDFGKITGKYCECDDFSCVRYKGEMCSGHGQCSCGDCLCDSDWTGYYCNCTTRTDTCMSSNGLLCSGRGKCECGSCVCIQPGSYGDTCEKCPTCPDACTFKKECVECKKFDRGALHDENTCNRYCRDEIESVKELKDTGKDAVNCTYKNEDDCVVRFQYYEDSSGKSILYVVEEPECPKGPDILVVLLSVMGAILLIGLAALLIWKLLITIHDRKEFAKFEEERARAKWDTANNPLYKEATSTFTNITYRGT

avb5 = avb5 (Homo sapiens, UniProt P06756+P18084); test: cell-free integrin binding assay
avb5, sequence (P06756 31-889 limits assumed): as the sequence (P06756 31-889 limits assumed) above
avb5, sequence (P06756 891-1048 limits assumed): as the sequence (P06756 891-1048 limits assumed) above
avb5, sequence (P18084 24-799): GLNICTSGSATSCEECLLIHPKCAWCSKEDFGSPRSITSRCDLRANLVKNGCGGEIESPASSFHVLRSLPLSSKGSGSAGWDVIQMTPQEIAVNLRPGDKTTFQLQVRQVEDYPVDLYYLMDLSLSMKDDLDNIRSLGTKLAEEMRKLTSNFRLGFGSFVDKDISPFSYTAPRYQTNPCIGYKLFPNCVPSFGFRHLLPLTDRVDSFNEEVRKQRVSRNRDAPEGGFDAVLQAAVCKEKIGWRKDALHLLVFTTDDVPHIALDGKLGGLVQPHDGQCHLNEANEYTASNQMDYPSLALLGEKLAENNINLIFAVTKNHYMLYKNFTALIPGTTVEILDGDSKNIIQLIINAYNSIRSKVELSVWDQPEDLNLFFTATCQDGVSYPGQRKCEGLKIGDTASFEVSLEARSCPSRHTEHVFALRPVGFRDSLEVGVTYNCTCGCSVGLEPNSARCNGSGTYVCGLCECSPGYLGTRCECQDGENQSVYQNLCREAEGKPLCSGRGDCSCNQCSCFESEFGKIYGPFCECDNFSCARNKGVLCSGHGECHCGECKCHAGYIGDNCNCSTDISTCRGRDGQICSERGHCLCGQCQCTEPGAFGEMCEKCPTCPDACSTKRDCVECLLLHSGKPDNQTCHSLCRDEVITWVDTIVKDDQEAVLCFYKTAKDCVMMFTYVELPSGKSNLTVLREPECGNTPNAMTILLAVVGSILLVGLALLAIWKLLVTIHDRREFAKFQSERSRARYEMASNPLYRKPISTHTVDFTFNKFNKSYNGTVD

[1] = tested on: angiogenesis and tumor growth; test: angiogenesis and tumor growth in vivo
patients with cancer = test: cancer patient studies; assay type: in vivo, human; settings: various patients with cancer
orthotopic GBM tumors = test: orthotopic brain tumor mouse model; assay type: in vivo
[2] = tested on: C-RAF S338 phosphorylation; test: C-RAF S338 phosphorylation in brain tumors; assay type: in vivo; settings: mouse orthotopic model
Excerpt: (§1) These events are associated with reduced cell proliferation in vitro and tumor regression in vivo.

C-RAF Ser338 = C-RAF Ser338 phosphorylation in human glioblastoma cell lines; assay type: cell-based
Excerpt: as §1

G2/M progression = G2/M progression after cilengitide treatment; assay type: cell-based
[3] = tested on: orthotopic FG pancreatic tumors; test: orthotopic pancreas cancer xenograft model; assay type: in vivo, mice
Excerpt: (§2) The longer cells were exposed to erlotinib the greater the expression level of αvβ3 was observed, FIG. 26b. […] Thus, exposure of histologically distinct tumor cells in vitro or in vivo to EGFR inhibitors selects for a tumor cell population expressing high levels of αvβ3.
(§3) In all cases, β3 expressing tumor cells were intrinsically more resistant to EGFR blockade than β3-negative tumor cell lines (FIG. 26e).
(a) Flow cytometric quantification of cell surface markers after 3 weeks treatment with erlotinib (pancreatic and colon cancer cells) or lapatinib (breast cancer cells). (b) Flow cytometric analysis of αvβ3 expression in FG and Miapaca-2 cells following erlotinib. Error bars represent s.d. (n=3 independent experiments). (c) Top, immunofluorescence staining of integrin αvβ3 in tissue specimens obtained from orthotopic pancreatic tumors treated with vehicle (n=3) or erlotinib (n=4). Scale bar, 50 μm. Bottom, Integrin αvβ3 expression was quantified as ratio of integrin αvβ3 pixel area over nuclei pixel area using Metamorph (*P=0.049 using Mann-Whitney U test). (d) Right, intensity (scale 0 to 3) of β3 expression in mouse orthotopic lung tumors treated with vehicle (n=8) or erlotinib (n=7). Left, immunohistochemical staining of β3. Scale bar, 100 μm. […] Results are expressed as % tumor weight compared to vehicle control. *P<0.05. […]

[4] = tested on: H441 human lung adenocarcinoma orthotopic tumors; test: orthotopic lung cancer xenograft model; assay type: in vivo, mice; settings: systemic erlotinib for 7-8 weeks
Excerpt: as §2
(a) Flow cytometric quantification of cell surface markers after 3 weeks treatment with erlotinib (pancreatic and colon cancer cells) or lapatinib (breast cancer cells). (b) Flow cytometric analysis of αvβ3 expression in FG and Miapaca-2 cells following erlotinib. Error bars represent s.d. (n=3 independent experiments). […] Bottom, Integrin αvβ3 expression was quantified as ratio of integrin αvβ3 pixel area over nuclei pixel area using Metamorph (*P=0.049 using Mann-Whitney U test). […] Results are expressed as % tumor weight compared to vehicle control. *P<0.05.
Immunostaining was performed according to the manufacturer's recommendations (Vector Labs) on […] sections of paraffin-embedded tumors from the orthotopic xenograft pancreas and lung cancer mouse models^14 or from a metastasis tissue array purchased from US Biomax (MET961). […] Sections stained with integrin β3 and active Ral were scored by a H-score according to the staining intensity (SI) on a scale 0 to 3 within the whole tissue section.

PANC-1 cells = test: tumor sphere formation assay; assay type: cell-based, human; settings: αvβ3 knockdown vs control
Excerpt: as §3
(a) Flow cytometric quantification of cell surface markers after 3 weeks treatment with erlotinib (pancreatic and colon cancer cells) or lapatinib (breast cancer cells). (b) Flow cytometric analysis of αvβ3 expression in FG and Miapaca-2 cells following erlotinib. Error bars represent s.d. (n=3 independent experiments). (c) Top, immunofluorescence staining of integrin αvβ3 in tissue specimens obtained from orthotopic pancreatic tumors treated with vehicle (n=3) or erlotinib (n=4). Scale bar, 50 μm. Bottom, Integrin αvβ3 expression was quantified as ratio of integrin αvβ3 pixel area over nuclei pixel area using Metamorph (*P=0.049 using Mann-Whitney U test). (d) Right, intensity (scale 0 to 3) of β3 expression in mouse orthotopic lung tumors treated with vehicle (n=8) or erlotinib (n=7). Left, immunohistochemical staining of β3. Scale bar, 100 μm. […] (f) Tumor sphere formation assay to establish a dose-response for erlotinib. Error bars represent s.d. (n=3 independent experiments). […] Results are expressed as % tumor weight compared to vehicle control. *P<0.05.
Tumor spheres formation assays were performed essentially as described previously^17. […] Colonies were stained with crystal violet and scored with an Olympus SZH10 microscope.

phosphorylated NF-κB = test: immunoblot analysis of cells grown in suspension and treated with erlotinib; assay type: cell-based, human; settings: erlotinib 0.5 μM
Protocol: (§4) In addition, it has been shown that NF-κB signaling is essential for KRAS-driven tumor growth and resistance to EGFR blockade^27-29. This prompted us to ask whether αvβ3 could regulate NF-κB activity through RalB activation and thereby promote tumor cell resistance to EGFR targeted therapy. To test this, tumor cells expressing or lacking integrin αvβ3 and/or RalB were grown in the presence or absence of erlotinib and lysates of these cells were analyzed for activated downstream effectors of RalB. […] NF-κB activity was sufficient to account for EGFR inhibitor resistance since ectopically expressed a constitutively active NF-κB (S276D) in β3-negative FG pancreatic tumor cells^30 conferred resistance to EGFR inhibition, see FIG. 29b). […] Together, our studies describe a role for αvβ3 mediating resistance to EGFR inhibition via RalB activation and its downstream effector NF-κB, opening new avenues to target tumors that are resistant to EGFR targeted therapy, see FIG. 29e.
(§5) Immunoblot analysis of FG, FG-β3 and FG-β3 stably expressing non-silencing or RalB-specific ShRNA, grown in suspension and treated with erlotinib (0.5 μM). pTBK1 refers to phospho-S172 TBK1, p-p65 NF-κB refers to phospho-p65 NF-κB S276, pFAK refers to phospho-FAK Tyr 861. Data are representative of three independent experiments. (b) Tumor spheres formation assay of FG cells ectopically expressing vector control, WT NF-κB FLAG tagged or constitutively active S276D NF-κB FLAG tagged constructs treated with erlotinib (0.5 μM). Error bars represent s.d. (n=3 independent experiments). *P<0.05, **P<0.001, NS=not significant. Immunoblot analysis showing NF-κB WT and S276D NF-κB FLAG transfection efficiency. (c) Tumor spheres formation assay of FG-β3 treating with non-silencing (shCTRL) or NF-κB-specific shRNA and exposed to erlotinib (0.5 μM). Error bars represent s.d. (n=3 independent experiments). *P<0.05, NS=not significant. (d) Dose response in FG-β3 cells treated with erlotinib (10 nM to 5 μM), lenalidomide (10 nM to 5 μM) or a combination of erlotinib (10 nM to 5 μM) and lenalidomide (1 μM). Error bars represent s.d. (n=3 independent experiments). *P<0.05, NS=not significant. (e) Model depicting the integrin αvβ3-mediated EGFR TKI resistance and conquering EGFR TKI resistance pathway and its downstream RalB and NF-κB effectors.
(§6) Cells were lysed in either RIPA lysis buffer (50 mM Tris pH 7.4, 100 mM NaCL, 2 mM EDTA, […], 10% Triton, 0.1% SDS) or Triton lysis buffer (50 mM Tris pH 7.5, 150 mN NaCl, 1 mM EDTA, 5 mM MgCl2, 10% Glycerol, 1% Triton) supplemented with complete protease and phosphatase inhibitor mixtures (Roche) and centrifuged at 13,000 g for 10 min at 4° C. Protein concentration was determined by BCA assay. […]

phosphorylated TBK1 = test: as above; assay type: cell-based, human; settings: erlotinib 0.5 μM
Protocol: as §4, §5, §6

SMILES: C[C@]1(O)C[C@@H](c2nc(-c3ccc4ccc(-c5ccccc5)nc4c3)c3c(N)nccn32)C1 [OSI-906]
- effect of αvβ3 expression on drug resistance (FG and FG-β3 cells): induced resistance

- inhibition of ligand binding to integrin avb3 (avb3): inhibit ligand binding
- inhibition of ligand binding to integrin avb3 (avb3; listed as EMD 121974): potent inhibitor
- inhibition of ligand binding to integrin avb5 (avb5): inhibit ligand binding
- inhibition of ligand binding to integrin avb5 (avb5; listed as EMD 121974): potent inhibitor
SMILES: CC(C)[C@H]1C(=O)N[C@@H](CCCN=C(N)N)C(=O)NCC(=O)N[C@@H](CC(=O)O)C(=O)N[C@H](Cc2ccccc2)C(=O)N1C [cilengitide]
- angiogenesis and tumor growth in vivo [1]: inhibited angiogenesis and tumor growth
- efficacy in cancer patients (patients with cancer): potentially efficacious in some patients
- toxicity in cancer patients (patients with cancer): non-toxic
- orthotopic GBM tumor vascularization and growth (orthotopic GBM tumors; CD31, Ki-67 and TUNEL staining): inhibits orthotopic GBM tumor vascularization and growth
- tumor burden (orthotopic GBM tumors; GBM tumors implanted in the brain): decreases tumor burden
- orthotopic GBM tumor burden (orthotopic GBM tumors; sub-optimal doses of cilengitide and radiation combined): synergize to reduce orthotopic GBM tumor burden
- C-RAF S338 phosphorylation [2]: blocks C-RAF S338 phosphorylation
- C-RAF S338 phosphorylation ([2]; listed as Cilengitide): prevents the activation/phosphorylation of C-RAF Ser338
- activation/phosphorylation of C-RAF Ser338 (C-RAF Ser338): prevents the activation/phosphorylation of C-RAF Ser338
- G2/M progression (G2/M progression): blocks G2/M progression

SMILES: N.N.[Cl][Pt][Cl] [cisplatin]
- effect of αvβ3 expression on drug resistance (FG and FG-β3 cells): failed to protect cells

SMILES: C#Cc1cccc(Nc2ncnc3cc(OCCOC)c(OCCOC)cc23)c1 [erlotinib]
- increase in αvβ3 expression ([3]; four weeks of erlotinib treatment): 10 fold
- effect of ectopic expression of αvβ3 on drug resistance ([3]; orthotopic pancreatic tumors after systemic treatment): dramatically increased erlotinib resistance
- integrin αvβ3 expression compared with vehicle-treated tumors [4]: qualitative increase
- increase in tumor cell sensitivity on knockdown of αvβ3 (PANC-1 cells): 10 fold
- effect of αvβ3 expression on drug resistance (FG and FG-β3 cells): dramatically increased erlotinib resistance
- erlotinib sensitivity under genetic or pharmacological inhibition of NF-κB (FG and FG-β3 cells; β3-positive cells, FIG. 29d combination with lenalidomide (1 μM)): completely restored erlotinib sensitivity
- levels of phosphorylated NF-κB (phosphorylated NF-κB; αvβ3 negative cells): reduced levels
- levels of phosphorylated NF-κB (phosphorylated NF-κB; β3-positive cells): remained activated
- levels of phosphorylated TBK1 (phosphorylated TBK1; αvβ3 negative cells): reduced levels
- levels of phosphorylated TBK1 (phosphorylated TBK1; β3-positive cells): remained activated

SMILES: Nc1ccn([C@@H]2O[C@H](CO)[C@@H](O)C2(F)F)c(=O)n1 [gemcitabine]
- effect of αvβ3 expression on drug resistance (FG and FG-β3 cells): failed to protect cells
